Read-outs that look alike come from different tables or passages of the source.
How the values were obtained:
Assay type in all cases: cell-based
[1] = system: E. coli ATCC 25922 (wild-type/QC strain); assay: broth microdilution MIC assay, E. coli ATCC 25922; settings: Escherichia coli, ATCC25922, E. coli 25922, read-out: E. coli 25922 MIC
Outline: (§1)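 MIC = lowest compound concentration with no visible growth after 16-20 h at 37 °C. Inoculum 5×10^5 CFU/mL from 3-5 h Mueller-Hinton broth cultures standardized by OD600; compounds tested as 2-fold serial dilutions per CLSI.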

[2] = system: S. aureus ATCC 29213 (methicillin sensitive); assay: broth microdilution MIC assay, S. aureus ATCC 29213; settings: Staphylococcus aureus, ATCC 29213 / MSSA; Table 3; S. aureus 29213 (MSSA); read-out: S. aureus 29213 (MSSA) MIC
Method: (§2) To determine the ability of test compounds to potentiate the inhibition of the growth of bacterial strains, classic cell-based broth microdilution MIC assays were employed. MIC assays are performed according to CLSI methods except where otherwise noted (CLSI, 2011 and CLSI, 2009). The reference strains S. aureus ATCC 29213 (methicillin sensitive), S. aureus ATCC 33591 (methicillin-resistant), E. coli ATCC 25922 (wild-type/QC strain), P. aeruginosa ATCC 27853 (wild-type/QC strain), and the clinical isolate P. aeruginosa PA 8 were used to determine the ability of the exemplary carbapenem compounds to inhibit bacterial growth. An expanded panel of methicillin resistance S. aureus (MRSA) and Pseudomonas was also used to determine the ability of exemplary carbapenem compounds to inhibit bacterial growth across a broader representation of those species. To determine activity in MRSA and in addition to S. aureus ATCC 33591, S. aureus USA 300, USA 400 and USA 600, some of the most common clones found to cause human infection, were also used. To further gauge the impact on the carbapenem compounds due to various resistance mechanisms in Pseudomonas, the following strains were included: P. aeruginosa 35151 (hyper-permeable strain), P. aeruginosa AmexAB-OprM (an efflux pump knockout), and P. aeruginosa PA 3 (a clinical isolate of reduced carbapenem susceptibility). Briefly, cryo-preserved bacterial cultures of clinical strains are streaked for isolation on appropriate agar medium, in this case Mueller Hinton II agar. Following incubation to allow formation of colonies, these plates are sealed with parafilm and stored refrigerated for up to two weeks. For preparation of assay inocula and to ensure low variability, at least 5 colonies are picked from the agar plates with an inoculating loop and aseptically transferred to a culture tube containing 3 mL of Mueller-Hinton Broth (supplemented with divalent cations to required levels based on Manufacturers' specification). The broth culture is grown for 3-5 hours at 37° C. with shaking at 200 rpm. Meanwhile, 2-fold serial dilutions of test compounds are conducted in a 96 well plate with a final volume of 75 μL per well at 2-fold the final desired concentration. After the dilution plates are set up the growing cultures are then diluted in a cuvette containing MH II broth and the optical density is measured at 600 nm. Inocula are diluted such that 75 μL of this culture in Mueller-Hinton Broth results in a starting bacterial concentration of 5×10^5 CFU/mL when added to the dilution plates. The plates are incubated 16-20 hours at 37° C. The MIC is read visually as the lowest concentration well with no bacterial growth.
(§3) Representative results are shown in Tables 3, 4, and 5 where A represents an MIC>32 μg/mL, B represents an MIC between 8 and 32 μg/mL inclusive, C represents an MIC between 1 and 4 μg/mL inclusive, and D represents an MIC of <1 μg/mL. NT=Not Tested.

[3] = system: S. aureus ATCC 33591 (methicillin-resistant); assay: broth microdilution MIC assay, S. aureus ATCC 33591; settings: Staphylococcus aureus
Outline: as §1

[4] = system: P. aeruginosa ATCC 27853 (wild-type/QC strain); assay: broth microdilution MIC assay, P. aeruginosa ATCC 27853; settings: Pseudomonas aeruginosa, ATCC27853, P. aeruginosa 27853, read-out: P. aeruginosa 27853 MIC
Outline: as §1

[5] = system: P. aeruginosa ΔmexAB-OprM (an efflux pump knockout); assay: broth microdilution MIC assay, P. aeruginosa ΔmexAB-OprM; settings: Pseudomonas aeruginosa, 20 h, read-out: P. aeruginosa ΔmexAB-OprM MIC
Method: as §2, §3

[6] = system: P. aeruginosa 35151 (hyper-permeable strain); assay: broth microdilution MIC assay, P. aeruginosa 35151; settings: Pseudomonas aeruginosa, read-out: P. aeruginosa 35151 MIC
Method: as §2, §3

[7] = system: S. aureus USA600; assay: broth microdilution MIC assay, S. aureus USA 600; settings: Staphylococcus aureus; Table 4; S. aureus USA600; read-out: S. aureus USA600 MIC
Method: as §2, §3

[8] = system: S. aureus USA 300; assay: broth microdilution MIC assay, S. aureus USA 300; settings: Staphylococcus aureus; Table 4; S. aureus USA300; read-out: S. aureus USA300 MIC
Method: as §2, §3

[9] = ATCC 33591 / MRSA, Table 3, S. aureus 33591 (MRSA), read-out: S. aureus 33591 (MRSA) MIC
[10] = ATCC33591, Table 4, S. aureus 33591, read-out: S. aureus 33591 MIC

Row | MIC ([1]; Table 3) | MIC [2] | MIC [3, 9] | MIC ([4]; Table 3) | Structure (SMILES) | MIC [5] | MIC [6] | MIC ([1]; Table 4) | MIC [7] | MIC [3, 10] | MIC ([4]; Table 5) | MIC [8]
1 | < 1 µg/mL | < 1 µg/mL | 8 to 32 µg/mL | 1 to 4 µg/mL | C[C@@H](O)[C@H]1C(=O)N2C(C(=O)O)=C(S[C@@H]3CCN(C4CCNCC4)C3)[C@H](C)[C@H]12 [Example 1, (4R,5S,6S)-6-((R)-1-hydroxyethyl)-4-methyl-7-oxo-3-(((R)-1-(piperidin-4-yl)pyrrolidin-3-yl)thio)-1-azabicyclo[3.2.0]hept-2-ene-2-carboxylic acid] |  |  |  |  |  |  | 
2 | < 1 µg/mL | < 1 µg/mL | 8 to 32 µg/mL | 1 to 4 µg/mL | C[C@@H](O)[C@H]1C(=O)N2C(C(=O)O)=C(S[C@@H]3C[C@@H](CO)N(C4CCNCC4)C3)[C@H](C)[C@H]12 [Example 5, (4R,5S,6S)-6-((R)-1-hydroxyethyl)-3-(((3R,5S)-5-(hydroxymethyl)-1-(piperidin-4-yl)pyrrolidin-3-yl)thio)-4-methyl-7-oxo-1-azabicyclo[3.2.0]hept-2-ene-2-carboxylic acid] |  |  |  |  |  |  | 
3 |  |  |  |  | CCN[C@H]1CC[C@@H](CN2CC(SC3=C(C(=O)O)N4C(=O)[C@H]([C@@H](C)O)[C@H]4[C@H]3C)C2)CC1 [Example 70, (4R,5S,6S)-3-((1-(((1s,4S)-4-(ethylamino)cyclohexyl)methyl)azetidin-3-yl)thio)-6-((R)-1-hydroxyethyl)-4-methyl-7-oxo-1-azabicyclo[3.2.0]hept-2-ene-2-carboxylic acid] | 1 to 4 µg/mL | < 1 µg/mL | < 1 µg/mL | 1 to 4 µg/mL | 1 to 4 µg/mL | 1 to 4 µg/mL | 1 to 4 µg/mL
4 |  |  |  |  | C[C@@H](O)[C@H]1C(=O)N2C(C(=O)O)=C(SC3CN(CCC4CCN(C(=N)N)CC4)C3)[C@H](C)[C@H]12 [Example 71, (4R,5S,6S)-3-((1-(2-(1-carbamimidoylpiperidin-4-yl)ethyl)azetidin-3-yl)thio)-6-((R)-1-hydroxyethyl)-4-methyl-7-oxo-1-azabicyclo[3.2.0]hept-2-ene-2-carboxylic acid] | 1 to 4 µg/mL | < 1 µg/mL | < 1 µg/mL | < 1 µg/mL | 1 to 4 µg/mL | 1 to 4 µg/mL | 1 to 4 µg/mL
5 |  |  |  |  | C[C@@H](O)[C@H]1C(=O)N2C(C(=O)O)=C(SC3CN(C[C@H]4CC[C@H](N(C)C(=N)N)CC4)C3)[C@H](C)[C@H]12 [Example 72, (4R,5S,6S)-6-((R)-1-hydroxyethyl)-4-methyl-3-((1-(((1r,4R)-4-(1-methylguanidino)cyclohexyl)methyl)azetidin-3-yl)thio)-7-oxo-1-azabicyclo[3.2.0]hept-2-ene-2-carboxylic acid] | 1 to 4 µg/mL | < 1 µg/mL | < 1 µg/mL | < 1 µg/mL | 1 to 4 µg/mL | 8 to 32 µg/mL | 1 to 4 µg/mL
6 |  |  |  |  | C[C@@H](O)[C@H]1C(=O)N2C(C(=O)O)=C(SC3CN(C[C@H]4CC[C@@H](NC(=N)N)CC4)C3)[C@H](C)[C@H]12 [Example 73, (4R,5S,6S)-3-((1-(((1s,4S)-4-guanidinocyclohexyl)methyl)azetidin-3-yl)thio)-6-((R)-1-hydroxyethyl)-4-methyl-7-oxo-1-azabicyclo[3.2.0]hept-2-ene-2-carboxylic acid] | < 1 µg/mL | < 1 µg/mL | < 1 µg/mL | < 1 µg/mL | 1 to 4 µg/mL | 1 to 4 µg/mL | 1 to 4 µg/mL
7 |  |  |  |  | C[C@@H](O)[C@H]1C(=O)N2C(C(=O)O)=C(SC3CN(C[C@H]4CC[C@@H](N(C)C(=N)N)CC4)C3)[C@H](C)[C@H]12 [Example 74, (4R,5S,6S)-6-((R)-1-hydroxyethyl)-4-methyl-3-((1-(((1s,4S)-4-(1-methylguanidino)cyclohexyl)methyl)azetidin-3-yl)thio)-7-oxo-1-azabicyclo[3.2.0]hept-2-ene-2-carboxylic acid] | 1 to 4 µg/mL | < 1 µg/mL | < 1 µg/mL | 1 to 4 µg/mL | 1 to 4 µg/mL | 8 to 32 µg/mL | 1 to 4 µg/mL

From US12084445B2, “Broad-spectrum carbapenems” (VenatoRx Pharmaceuticals, Inc., priority 2018, dated 2024)
